Results published in patent US9187471B2, “Pyrido [4,3-b] indole and pyrido [3,4-b] indole derivatives and methods of use” (Medivation Technologies, Inc., priority 2010, dated 2015).

What was measured:
[1] = target: T1, human recombinant serotonin (5-Hydroxytryptamine) 5-HT2C receptor (Homo sapiens, UniProt P28335); experiment: Serotonin 5-HT2C radioligand binding ([3H]Mesulergine); conditions: compound at 0.1 μM; read-out: Inhibition of ligand binding, Serotonin 5-HT2C (percent inhibition of specific binding)
T1 construct: expressed in transfected cells; host or cells: CHO-K1
T1 sequence (P28335 33-458): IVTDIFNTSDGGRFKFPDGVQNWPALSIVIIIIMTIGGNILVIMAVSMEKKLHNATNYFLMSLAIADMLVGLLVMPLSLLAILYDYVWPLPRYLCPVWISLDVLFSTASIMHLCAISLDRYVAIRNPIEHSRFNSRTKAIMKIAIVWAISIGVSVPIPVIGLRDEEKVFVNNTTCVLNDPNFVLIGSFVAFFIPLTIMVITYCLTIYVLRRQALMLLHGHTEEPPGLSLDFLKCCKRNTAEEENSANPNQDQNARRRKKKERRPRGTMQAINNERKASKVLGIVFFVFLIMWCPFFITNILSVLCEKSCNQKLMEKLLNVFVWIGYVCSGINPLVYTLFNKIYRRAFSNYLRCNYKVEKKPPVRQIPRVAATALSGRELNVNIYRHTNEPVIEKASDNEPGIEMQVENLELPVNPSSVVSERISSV
Description: Compounds of the invention were incubated with 1 nM [^3H]Mesulergine for 60 min at 25° C. Non-specific binding was estimated in the presence of 1 μM Mianserin. Receptor proteins were filtered and washed, the filters were then counted to determine [^3H]Mesulergine specifically bound.

[2] = target: T2, human recombinant serotonin (5-Hydroxytryptamine) 5-HT6 receptor (Homo sapiens, UniProt P50406); experiment: Serotonin 5-HT6 radioligand binding ([3H]LSD); conditions: compound at 0.1 μM; read-out: Inhibition of ligand binding, Serotonin 5-HT6 (percent inhibition of specific binding)
T2 construct: expressed in transfected cells; host or cells: HeLa
T2 sequence (P50406 whole entry): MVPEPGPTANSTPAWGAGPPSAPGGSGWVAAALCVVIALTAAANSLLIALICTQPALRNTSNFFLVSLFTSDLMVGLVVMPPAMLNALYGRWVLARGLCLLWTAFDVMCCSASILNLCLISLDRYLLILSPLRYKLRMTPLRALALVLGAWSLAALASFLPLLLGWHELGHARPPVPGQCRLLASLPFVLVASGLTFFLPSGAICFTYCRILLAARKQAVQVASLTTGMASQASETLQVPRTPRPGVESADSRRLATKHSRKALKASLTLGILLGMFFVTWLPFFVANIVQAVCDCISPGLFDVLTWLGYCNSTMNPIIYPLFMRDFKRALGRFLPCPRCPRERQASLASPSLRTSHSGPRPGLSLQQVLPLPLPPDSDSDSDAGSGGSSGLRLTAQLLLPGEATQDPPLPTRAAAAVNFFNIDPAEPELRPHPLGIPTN
Description: Receptor proteins were filtered and washed, the filters were then counted to determine [3H]LSD specifically bound.

[3] = target: T3, human recombinant serotonin (5-Hydroxytryptamine) 5-HT2A receptor (Homo sapiens, UniProt P28223); experiment: Serotonin 5-HT2A radioligand binding ([3H]Ketanserin); conditions: compound at 0.1 μM; read-out: Inhibition of ligand binding, Serotonin 5-HT2A (percent inhibition of specific binding)
T3 construct: expressed in transfected cells; host or cells: CHO-K1
T3 sequence (P28223 whole entry): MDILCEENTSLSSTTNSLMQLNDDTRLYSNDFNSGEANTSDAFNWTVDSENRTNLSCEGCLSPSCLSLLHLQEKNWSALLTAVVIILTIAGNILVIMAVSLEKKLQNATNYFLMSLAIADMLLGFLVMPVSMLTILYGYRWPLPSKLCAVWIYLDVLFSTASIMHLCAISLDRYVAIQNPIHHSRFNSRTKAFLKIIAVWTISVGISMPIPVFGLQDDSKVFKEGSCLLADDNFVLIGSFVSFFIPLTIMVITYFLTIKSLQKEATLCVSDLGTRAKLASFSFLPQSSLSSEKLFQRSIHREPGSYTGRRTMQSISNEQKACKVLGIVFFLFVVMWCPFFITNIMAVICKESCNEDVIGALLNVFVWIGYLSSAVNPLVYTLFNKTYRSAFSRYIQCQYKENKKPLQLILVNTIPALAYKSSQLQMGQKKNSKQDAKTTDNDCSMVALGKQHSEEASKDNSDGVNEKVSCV
Description: Compounds of the invention were incubated with 0.5 nM [^3H]Ketanserin for 60 min at 25° C. Non-specific binding was estimated in the presence of 1 μM Mianserin. Receptor proteins were filtered and washed, the filters were then counted to determine [^3H]Ketanserin specifically bound.

[4] = target: T4, human recombinant dopamine D2L receptor (Homo sapiens, UniProt P14416); experiment: Dopamine D2L radioligand binding ([3H]Spiperone); conditions: read-out: Dopamine D2L (1 μM), percent inhibition of specific binding; compound at 1 μM; 0.16 nM [3H]Spiperone
T4 construct: expressed in transfected cells; host or cells: CHO
T4 sequence (P14416 whole entry): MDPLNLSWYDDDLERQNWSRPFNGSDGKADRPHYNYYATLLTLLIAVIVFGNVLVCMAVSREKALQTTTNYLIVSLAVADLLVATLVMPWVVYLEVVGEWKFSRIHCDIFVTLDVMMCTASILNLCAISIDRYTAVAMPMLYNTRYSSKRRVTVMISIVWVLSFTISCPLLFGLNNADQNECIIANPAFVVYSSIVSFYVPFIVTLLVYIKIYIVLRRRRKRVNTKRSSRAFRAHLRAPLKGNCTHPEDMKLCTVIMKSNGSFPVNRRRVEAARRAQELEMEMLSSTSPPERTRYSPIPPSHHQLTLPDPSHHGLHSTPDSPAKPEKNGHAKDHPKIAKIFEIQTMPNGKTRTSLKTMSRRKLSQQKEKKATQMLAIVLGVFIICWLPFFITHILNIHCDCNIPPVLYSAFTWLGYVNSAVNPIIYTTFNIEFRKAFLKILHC
Description: Non-specific binding was estimated in the presence of 10 μM Haloperidol. Receptor proteins were filtered and washed, the filters were then counted to determine [^3H]Spiperone specifically bound.

[5] = target: T5, human recombinant serotonin (5-Hydroxytryptamine) 5-HT7 receptor (Homo sapiens, UniProt P34969); experiment: Serotonin 5-HT7 radioligand binding ([3H]LSD); conditions: compound at 0.1 μM; read-out: Inhibition of ligand binding, Serotonin 5-HT7 (percent inhibition of specific binding)
T5 construct: expressed in transfected cells; host or cells: CHO
T5 sequence (P34969 whole entry): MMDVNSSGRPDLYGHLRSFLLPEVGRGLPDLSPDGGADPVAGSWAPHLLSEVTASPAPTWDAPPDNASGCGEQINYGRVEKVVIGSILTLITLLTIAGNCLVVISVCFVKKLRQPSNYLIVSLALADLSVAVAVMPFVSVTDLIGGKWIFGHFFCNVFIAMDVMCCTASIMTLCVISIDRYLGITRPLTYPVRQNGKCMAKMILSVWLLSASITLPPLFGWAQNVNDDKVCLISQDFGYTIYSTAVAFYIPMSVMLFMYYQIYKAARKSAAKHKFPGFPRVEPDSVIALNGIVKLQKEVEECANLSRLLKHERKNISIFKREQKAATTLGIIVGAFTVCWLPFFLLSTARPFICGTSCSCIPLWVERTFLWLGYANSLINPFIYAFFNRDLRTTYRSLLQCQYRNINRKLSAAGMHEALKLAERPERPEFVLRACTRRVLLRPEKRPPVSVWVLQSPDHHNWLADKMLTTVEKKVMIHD
Description: Lysergic acid diethylamide (LSD) for 120 min. at 25° C. […] Receptor proteins were filtered and washed, the filters were then counted to determine [^3H]LSD specifically bound.

[6] = target: T6, human recombinant histamine H1 receptor (Homo sapiens, UniProt P35367); experiment: Histamine H1 radioligand binding ([3H]Pyrilamine); conditions: read-out: Histamine H1 Binding (1 μM), percent inhibition of specific binding; compound at 1 μM; 1.2 nM [3H]Pyrilamine
T6 construct: expressed in transfected cells; host or cells: CHO-K1
T6 sequence (P35367 whole entry): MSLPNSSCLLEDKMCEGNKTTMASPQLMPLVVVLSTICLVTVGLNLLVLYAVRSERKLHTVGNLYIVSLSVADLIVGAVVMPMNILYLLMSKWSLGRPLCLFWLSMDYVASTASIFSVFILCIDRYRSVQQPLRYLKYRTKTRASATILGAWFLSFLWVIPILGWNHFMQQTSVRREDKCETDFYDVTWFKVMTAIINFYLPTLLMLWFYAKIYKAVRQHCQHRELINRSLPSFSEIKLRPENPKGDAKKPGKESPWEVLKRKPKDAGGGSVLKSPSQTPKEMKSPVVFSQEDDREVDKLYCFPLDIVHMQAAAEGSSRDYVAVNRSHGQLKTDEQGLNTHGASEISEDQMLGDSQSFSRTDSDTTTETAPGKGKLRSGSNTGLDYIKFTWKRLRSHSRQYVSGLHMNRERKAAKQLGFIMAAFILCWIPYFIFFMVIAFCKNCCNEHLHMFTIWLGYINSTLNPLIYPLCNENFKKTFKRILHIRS
Description: To evaluate in radioligand binding assays the activity of compounds of the invention, human recombinant histamine H1 receptor expressed in Chinese hamster ovary (CHO) K1 cells (De Backer, M. et al, Biochem. Biophys. Res. Comm. 197(3):1601, 1993) in a modified Tris-HCl buffer (50 mM Tris-HCl, pH 7.4, 2 mM MgCl2, 100 mM NaCl, 250 mM Sucrose) was used. […] Non-specific binding was estimated in the presence of 1 μM Pyrilamine. Receptor proteins were filtered and washed, the filters were then counted to determine [^3H]Pyrilamine specifically bound. […] Biochemical assay results are presented as the percent inhibition of specific binding in Table 2.

Cc1ccc2c(c1)c1c(n2-c2cscc2-c2ccccc2)CCN(C)C1 [Compound 21, 2,8-dimethyl-5-(4-phenyl-thiophen-3-yl)-2,3,4,5-tetrahydro-1H-pyrido[4,3-b]indole]
inhibition at 0.1 µM [1]: 96%
inhibition at 0.1 µM [2]: 62%
inhibition at 0.1 µM [3]: 90%
inhibition at 1 µM [4]: 54%
inhibition at 0.1 µM [5]: 99%
inhibition at 1 µM [6]: 86%

Cc1ccc2c(c1)c1c(n2-c2cscn2)CCN(C)C1 [Compound 19, 2,8-dimethyl-5-thiazol-4-yl-2,3,4,5-tetrahydro-1H-pyrido[4,3-b]indole]
inhibition at 0.1 µM [1]: 71%
inhibition at 0.1 µM [2]: 15%
inhibition at 0.1 µM [3]: 64%
inhibition at 1 µM [4]: 14%
inhibition at 0.1 µM [5]: 51%
inhibition at 1 µM [6]: 59%

CN1CCc2c(c3cc(Cl)ccc3n2-c2cscc2-c2ccc(F)cc2)C1 [Compound 25]
inhibition at 0.1 µM [1]: 91%
inhibition at 0.1 µM [2]: 56%
inhibition at 0.1 µM [3]: 81%
inhibition at 1 µM [4]: 39%
inhibition at 0.1 µM [5]: 94%
inhibition at 1 µM [6]: 80%

Cc1ccc2c(c1)c1c(n2-c2ncccc2-c2ccncc2)CCN(C)C1 [Compound No. 161, 5-(3,4′-bipyridin-2-yl)-2,8-dimethyl-2,3,4,5-tetrahydro-1H-pyrido[4,3-b]indole]
inhibition at 0.1 µM [2]: 4%
inhibition at 0.1 µM [3]: 17%
inhibition at 0.1 µM [5]: 18%

Cc1ccc2c(c1)c1c(n2-c2ccc(C)nc2)CCN(C)C1 [Compound 3, 2,8-dimethyl-5-(6-methyl-pyridin-3-yl)-2,3,4,5-tetrahydro-1H-pyrido[4,3-b]indole]
inhibition at 0.1 µM [1]: 26%
inhibition at 0.1 µM [2]: 20%
inhibition at 0.1 µM [3]: 36%
inhibition at 1 µM [4]: 16%
inhibition at 0.1 µM [5]: 8%
inhibition at 1 µM [6]: 10%

Cc1ccc2c(c1)c1c(n2-c2ccccc2)CCN(C)C1 [Compound 1, 2,8-dimethyl-5-phenyl-2,3,4,5-tetrahydro-1H-pyrido[4,3-b]indole]
inhibition at 0.1 µM [1]: 88%
inhibition at 0.1 µM [2]: 63%
inhibition at 0.1 µM [3]: 100%
inhibition at 1 µM [4]: 67%
inhibition at 0.1 µM [5]: 21%
inhibition at 1 µM [6]: 70%

Cc1ccc2c(c1)c1c(n2-c2ccc(C(F)(F)F)nc2)CCN(C)C1 [Compound 4, 2,8-dimethyl-5-(6-trifluoromethyl-pyridin-3-yl)-2,3,4,5-tetrahydro-1H-pyrido[4,3-b]indole]
inhibition at 0.1 µM [1]: 73%
inhibition at 0.1 µM [2]: 14%
inhibition at 0.1 µM [3]: 67%
inhibition at 1 µM [4]: 0%
inhibition at 0.1 µM [5]: 1%
inhibition at 1 µM [6]: -1%

CN1CCc2c(c3cc(Cl)ccc3n2-c2cscc2-c2cccnc2)C1 [Compound 27]
inhibition at 0.1 µM [1]: 72%
inhibition at 0.1 µM [2]: 30%
inhibition at 0.1 µM [3]: 67%
inhibition at 1 µM [4]: 26%
inhibition at 0.1 µM [5]: 94%
inhibition at 1 µM [6]: 76%

COc1ccc(-n2c3c(c4cc(C)ccc42)CN(C)CC3)cn1 [Compound 17, 5-(6-Methoxy-pyridin-3-yl)-2,8-dimethyl-2,3,4,5-tetrahydro-1H-pyrido[4,3-b]indole]
inhibition at 0.1 µM [1]: 44%
inhibition at 0.1 µM [2]: 17%
inhibition at 0.1 µM [3]: 62%
inhibition at 1 µM [4]: 10%
inhibition at 0.1 µM [5]: 1%
inhibition at 1 µM [6]: 23%

Cc1ccc2c(c1)c1c(n2-c2ccccc2-c2ccc(S(C)(=O)=O)cc2)CCN(C)C1 [Compound No. 160, 2,8-dimethyl-5-(4′-(methylsulfonyl)biphenyl-2-yl)-2,3,4,5-tetrahydro-1H-pyrido[4,3-b]indole]
inhibition at 0.1 µM [2]: 18%
inhibition at 0.1 µM [3]: 36%
inhibition at 0.1 µM [5]: 17%

Cc1ccc2c(c1)c1c(n2-c2cscc2-c2ccc(F)cc2)CCN(C)C1 [Compound 23]
inhibition at 0.1 µM [1]: 90%
inhibition at 0.1 µM [2]: 45%
inhibition at 0.1 µM [3]: 83%
inhibition at 1 µM [4]: 44%
inhibition at 0.1 µM [5]: 98%
inhibition at 1 µM [6]: 72%

Cc1ccc2c(c1)c1c(n2-c2ccccc2-c2ccccc2)CCN(C)C1 [Compound 8, 5-biphenyl-2-yl-2,8-dimethyl-2,3,4,5-tetrahydro-1H-pyrido[4,3-b]indole]
inhibition at 0.1 µM [1]: 97%
inhibition at 0.1 µM [2]: 52%
inhibition at 0.1 µM [3]: 99%
inhibition at 1 µM [4]: 30%
inhibition at 0.1 µM [5]: 65%
inhibition at 1 µM [6]: 92%

CN1CCc2c(c3cc(Cl)ccc3n2-c2cscc2-c2ccncc2)C1 [Compound 28]
inhibition at 0.1 µM [1]: 76%
inhibition at 0.1 µM [2]: 45%
inhibition at 0.1 µM [3]: 68%
inhibition at 1 µM [4]: 20%
inhibition at 0.1 µM [5]: 95%
inhibition at 1 µM [6]: 46%

Cc1ccc2c(c1)c1c(n2-c2cncn2C)CCN(C)C1 [Compound 18, 2,8-dimethyl-5-(3-methyl-3H-imidazol-4-yl)-2,3,4,5-tetrahydro-1H-pyrido[4,3-b]indole]
inhibition at 0.1 µM [1]: 8%
inhibition at 0.1 µM [2]: 2%
inhibition at 0.1 µM [3]: 14%
inhibition at 1 µM [4]: 13%
inhibition at 0.1 µM [5]: 22%
inhibition at 1 µM [6]: 79%

Cc1ccc2c(c1)c1c(n2-c2ccccc2-c2ccc(S(N)(=O)=O)cc2)CCN(C)C1 [Compound No. 163, 2′-(2,8-dimethyl-3,4-dihydro-1H-pyrido[4,3-b]indol-5(2H)-yl)biphenyl-4-sulfonamide]
inhibition at 0.1 µM [2]: 13%
inhibition at 0.1 µM [3]: 73%
inhibition at 0.1 µM [5]: 36%

Cc1ccc2c(c1)c1c(n2-c2cnc(C)c3ccccc23)CCN(C)C1 [Compound No. 164, 2,8-dimethyl-5-(1-methylisoquinolin-4-yl)-2,3,4,5-tetrahydro-1H-pyrido[4,3-b]indole]
inhibition at 0.1 µM [2]: 1%
inhibition at 0.1 µM [3]: 23%
inhibition at 0.1 µM [5]: 4%

Cc1ccc2c(c1)c1c(n2-c2ccc3ccccc3c2)CCN(C)C1 [Compound 12, 2,8-dimethyl-5-naphthalen-2-yl-2,3,4,5-tetrahydro-1H-pyrido[4,3-b]indole]
inhibition at 0.1 µM [1]: 93%
inhibition at 0.1 µM [2]: 63%
inhibition at 0.1 µM [3]: 94%
inhibition at 1 µM [4]: 84%
inhibition at 0.1 µM [5]: 3%
inhibition at 1 µM [6]: 24%

Cc1ccc2c(c1)c1c(n2-c2ccccc2-c2cnccc2C)CCN(C)C1 [Compound No. 159, 2,8-dimethyl-5-(2-(4-methylpyridin-3-yl)phenyl)-2,3,4,5-tetrahydro-1H-pyrido[4,3-b]indole]
inhibition at 0.1 µM [2]: 0%
inhibition at 0.1 µM [3]: 48%
inhibition at 0.1 µM [5]: 19%

CN1CCc2c(c3cc(Cl)ccc3n2-c2ccsc2)C1 [Compound 29, 8-chloro-2-methyl-5-thiophen-3-yl-2,3,4,5-tetrahydro-1H-pyrido[4,3-b]indole]
inhibition at 0.1 µM [1]: 98%
inhibition at 0.1 µM [2]: 101%
inhibition at 0.1 µM [3]: 101%
inhibition at 1 µM [4]: 63%
inhibition at 0.1 µM [5]: 63%
inhibition at 1 µM [6]: 90%

Cc1ccc2c(c1)c1c(n2-c2ccncc2)CCN(C)C1 [Compound 2, 2,8-dimethyl-5-pyridin-4-yl-2,3,4,5-tetrahydro-1H-pyrido[4,3-b]indole]
inhibition at 0.1 µM [1]: 54%
inhibition at 0.1 µM [2]: 17%
inhibition at 0.1 µM [3]: 74%
inhibition at 1 µM [4]: 13%
inhibition at 0.1 µM [5]: 36%
inhibition at 1 µM [6]: 51%

Cc1ccc2c(c1)c1c(n2-c2ccccc2-c2cccnc2)CCN(C)C1 [Compound 13, 2,8-dimethyl-5-(2-pyridin-3-yl-phenyl)-2,3,4,5-tetrahydro-1H-pyrido[4,3-b]indole]
inhibition at 0.1 µM [1]: 73%
inhibition at 0.1 µM [2]: 14%
inhibition at 0.1 µM [3]: 73%
inhibition at 1 µM [4]: 21%
inhibition at 0.1 µM [5]: 47%
inhibition at 1 µM [6]: 72%
